Experimental data from ChEMBL document CHEMBL1201862, “PubChem BioAssay data set” (2004).
Active and inactive are the calls of the source.

Tests used:
[1] = molecular target: T1, Beta-adrenergic receptor kinase 1 (Homo sapiens, UniProt P25098); test: blockers of aptamer binding to GRK2 – biochemical, flow cytometry beads, FAM-aptamer, powder set 1, dose response (AID 588720)
[2] = molecular target: T2, Heat shock factor protein 1 (Mus musculus, UniProt P38532); test: decrease of HSF1-responsive luciferase luminescence – cell-based, NIH3T3, dose retest, confirmation (AID 2382); format: functional;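 note: NIH3T3 fibroblasts with HSF1-driven luciferase reporter stressed by proteasome inhibitor MG132; luminescence from HSF1-driven luciferase expression after 8 hours of MG132 stress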
T2 sequence (P38532 whole entry): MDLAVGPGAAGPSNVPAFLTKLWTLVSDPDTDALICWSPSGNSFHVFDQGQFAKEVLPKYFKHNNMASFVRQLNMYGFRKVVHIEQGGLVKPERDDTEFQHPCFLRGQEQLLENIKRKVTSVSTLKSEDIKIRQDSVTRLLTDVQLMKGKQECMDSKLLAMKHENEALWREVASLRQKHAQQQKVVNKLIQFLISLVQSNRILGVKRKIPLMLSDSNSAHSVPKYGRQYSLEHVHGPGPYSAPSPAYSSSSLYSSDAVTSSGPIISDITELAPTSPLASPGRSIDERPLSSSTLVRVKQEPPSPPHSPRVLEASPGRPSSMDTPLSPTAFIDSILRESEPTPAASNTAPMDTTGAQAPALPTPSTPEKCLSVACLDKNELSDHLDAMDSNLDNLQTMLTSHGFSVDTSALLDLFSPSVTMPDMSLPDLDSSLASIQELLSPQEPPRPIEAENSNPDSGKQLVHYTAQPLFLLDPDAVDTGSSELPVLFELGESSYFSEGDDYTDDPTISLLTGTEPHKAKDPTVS

[3] = molecular target: Peroxisome proliferator-activated receptor gamma/Nuclear receptor corepressor 2 (Homo sapiens, UniProt P37231+Q9Y618); test: Counterscreen for NR2E3 inverse agonists: TR-FRET-based biochemical high throughput dose response assay to identify inverse agonists of the interaction between peroxisome proliferator-activated receptor gamma (PPARg) and nuclear receptor co-repressor 2 (NCOR2).; format: functional
[4] = molecular target: Photoreceptor-specific nuclear receptor (Homo sapiens, UniProt Q9Y5X4); test: ligands suppressing NR2E3 nuclear receptor activity – biochemical, TR-FRET, dose response (AID 463256); format: functional
Photoreceptor-specific nuclear receptor, sequence (Q9Y5X4 whole entry): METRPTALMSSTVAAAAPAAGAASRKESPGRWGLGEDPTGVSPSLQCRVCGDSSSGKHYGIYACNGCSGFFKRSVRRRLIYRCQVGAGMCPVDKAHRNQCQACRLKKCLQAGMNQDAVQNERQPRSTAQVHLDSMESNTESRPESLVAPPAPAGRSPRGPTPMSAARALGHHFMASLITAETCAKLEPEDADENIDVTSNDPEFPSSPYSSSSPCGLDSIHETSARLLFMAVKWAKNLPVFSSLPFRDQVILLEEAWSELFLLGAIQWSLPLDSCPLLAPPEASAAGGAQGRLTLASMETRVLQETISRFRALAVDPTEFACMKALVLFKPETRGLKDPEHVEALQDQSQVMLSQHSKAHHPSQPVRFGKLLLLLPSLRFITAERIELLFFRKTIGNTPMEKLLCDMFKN

[5] = molecular target: T1, Beta-adrenergic receptor kinase 1; test: aptamer displacement from bead-bound GRK2 – biochemical, cherry pick 1, bead flow cytometry, dose response (AID 504500)
[6] = molecular target: T3, Carboxy-terminal domain RNA polymerase II polypeptide A small phosphatase 1 (Homo sapiens, UniProt Q9GZU7); test: CTDSP1 inhibitors, concentration-response, biochemical, absorbance readout, ultra-high-throughput screen actives (AID 540297); format: functional
T3 sequence (Q9GZU7 whole entry): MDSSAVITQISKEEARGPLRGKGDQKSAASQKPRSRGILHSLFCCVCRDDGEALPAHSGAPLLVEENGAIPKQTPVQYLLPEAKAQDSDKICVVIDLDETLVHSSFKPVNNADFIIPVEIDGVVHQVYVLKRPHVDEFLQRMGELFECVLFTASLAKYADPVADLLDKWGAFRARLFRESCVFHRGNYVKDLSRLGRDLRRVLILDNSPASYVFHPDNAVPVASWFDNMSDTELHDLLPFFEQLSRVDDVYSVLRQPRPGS

[7] = molecular target: Sphingosine 1-phosphate receptor 5 (Homo sapiens, UniProt Q9H228); test: Late stage counterscreen assay for S1P4 antagonists: Fluorescence dose response cell-based screening assay for antagonists of the Sphingosine 1-Phosphate Receptor 5 (S1P5). [Related pubchem assays (depositor defined):AID1510, AID1524, AID1692, AID1853, AID2332, AID489009, AID489017]; format: functional
Sphingosine 1-phosphate receptor 5, sequence (Q9H228 whole entry): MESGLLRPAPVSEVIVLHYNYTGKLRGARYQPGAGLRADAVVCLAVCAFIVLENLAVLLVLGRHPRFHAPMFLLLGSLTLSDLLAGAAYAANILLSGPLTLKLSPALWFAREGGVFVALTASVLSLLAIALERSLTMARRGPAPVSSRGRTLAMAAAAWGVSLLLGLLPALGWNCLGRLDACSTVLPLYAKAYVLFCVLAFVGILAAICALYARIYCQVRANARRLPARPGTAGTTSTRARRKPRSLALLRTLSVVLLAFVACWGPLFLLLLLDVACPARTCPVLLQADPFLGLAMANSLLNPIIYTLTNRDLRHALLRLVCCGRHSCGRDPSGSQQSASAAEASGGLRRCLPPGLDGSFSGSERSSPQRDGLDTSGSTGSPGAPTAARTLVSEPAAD

[8] = molecular target: Sphingosine 1-phosphate receptor 3 (Homo sapiens, UniProt Q99500); test: Late stage counterscreen assay for S1P4 antagonists: Fluorescence dose response cell-based screening assay for antagonists of the Sphingosine 1-Phosphate Receptor 3 (S1P3). [Related pubchem assays (depositor defined):AID1510, AID1524, AID1692, AID1853, AID2332, AID489009, AID489017]; format: functional
[9] = molecular target: Sphingosine 1-phosphate receptor 1 (Homo sapiens, UniProt P21453); test: Late stage counterscreen assay for S1P4 antagonists: Fluorescence dose response cell-based screening assay for antagonists of the Sphingosine 1-Phosphate Receptor 1 (S1P1). [Related pubchem assays (depositor defined):AID1510, AID1524, AID1692, AID1853, AID2332, AID489009, AID489017]; format: functional
[10] = molecular target: Sphingosine 1-phosphate receptor 2 (Homo sapiens, UniProt O95136); test: Late stage counterscreen assay for S1P4 antagonists: Fluorescence dose response cell-based screening assay for antagonists of the Sphingosine 1-Phosphate Receptor 2 (S1P2). [Related pubchem assays (depositor defined):AID1510, AID1524, AID1692, AID1853, AID2332, AID489009, AID489017]; format: functional
[11] = molecular target: T4, Tyrosine-protein phosphatase non-receptor type 7 (Homo sapiens, UniProt P35236); format: functional
T4 sequence (P35236 whole entry): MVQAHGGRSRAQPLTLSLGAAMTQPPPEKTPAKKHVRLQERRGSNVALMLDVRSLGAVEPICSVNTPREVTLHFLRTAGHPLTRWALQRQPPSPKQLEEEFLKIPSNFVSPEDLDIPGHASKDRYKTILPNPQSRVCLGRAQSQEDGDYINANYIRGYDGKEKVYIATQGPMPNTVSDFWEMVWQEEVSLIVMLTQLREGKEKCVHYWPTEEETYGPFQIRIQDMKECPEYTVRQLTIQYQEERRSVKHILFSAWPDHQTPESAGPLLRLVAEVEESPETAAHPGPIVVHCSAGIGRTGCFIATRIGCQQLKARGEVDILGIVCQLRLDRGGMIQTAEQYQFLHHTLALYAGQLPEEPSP

[12] = molecular target: T5, Tyrosine-protein phosphatase non-receptor type 22 (Homo sapiens, UniProt Q9Y2R2); format: functional
T5 sequence (Q9Y2R2 whole entry): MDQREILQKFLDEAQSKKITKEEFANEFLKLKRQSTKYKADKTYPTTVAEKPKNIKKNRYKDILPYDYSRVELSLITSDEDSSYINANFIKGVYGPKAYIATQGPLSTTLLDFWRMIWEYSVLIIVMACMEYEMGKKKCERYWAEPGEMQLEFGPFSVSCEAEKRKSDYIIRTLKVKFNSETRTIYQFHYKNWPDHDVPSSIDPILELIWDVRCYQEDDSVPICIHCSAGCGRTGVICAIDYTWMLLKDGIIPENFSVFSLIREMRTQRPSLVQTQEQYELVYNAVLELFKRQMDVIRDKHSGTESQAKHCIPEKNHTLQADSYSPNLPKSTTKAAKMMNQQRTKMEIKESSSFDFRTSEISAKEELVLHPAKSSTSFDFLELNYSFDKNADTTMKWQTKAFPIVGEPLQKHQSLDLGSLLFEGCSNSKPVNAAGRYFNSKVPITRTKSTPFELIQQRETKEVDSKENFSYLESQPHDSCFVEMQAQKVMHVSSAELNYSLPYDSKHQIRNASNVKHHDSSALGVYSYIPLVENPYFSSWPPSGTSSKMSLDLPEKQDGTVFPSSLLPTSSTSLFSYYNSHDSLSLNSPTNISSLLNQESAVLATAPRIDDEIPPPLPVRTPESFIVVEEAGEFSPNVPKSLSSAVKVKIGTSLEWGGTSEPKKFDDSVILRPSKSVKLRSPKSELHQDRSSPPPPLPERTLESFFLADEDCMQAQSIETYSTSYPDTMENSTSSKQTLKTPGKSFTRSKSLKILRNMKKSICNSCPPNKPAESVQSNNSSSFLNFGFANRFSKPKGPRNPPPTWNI

[13] = molecular target: T5, Tyrosine-protein phosphatase non-receptor type 22; format: functional; remark: listed apart in the source
[14] = microbe, parasite or virus in culture; format: functional; details: Mycobacterium tuberculosis
A-375 = test: MITF: Counter assay: A375 proliferation Measured in Cell-Based System Using Plate Reader - 2084-03_Inhibitor_Dose_DryPowder_Activity. [Related pubchem assays (depositor defined):AID488944]; format: functional; details: Homo sapiens
[15] = molecular target: Hepatocyte nuclear factor 4-alpha (Homo sapiens, UniProt P41235); format: functional, cell-based;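 note: biochemical luminescence-based dose-response counterscreen measuring inhibition of HNF4 dimerization, run alongside a screen for blockers of ABHD5–perilipin-5 interaction; split luciferase complementation of HNF4 fusion proteins in cell lysate measuring dimerization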
Beta-galactosidase = Beta-galactosidase (Escherichia coli, UniProt Q8VNN2); test: PubChem AID 485352; format: functional
Beta-galactosidase, sequence (Q8VNN2 whole entry): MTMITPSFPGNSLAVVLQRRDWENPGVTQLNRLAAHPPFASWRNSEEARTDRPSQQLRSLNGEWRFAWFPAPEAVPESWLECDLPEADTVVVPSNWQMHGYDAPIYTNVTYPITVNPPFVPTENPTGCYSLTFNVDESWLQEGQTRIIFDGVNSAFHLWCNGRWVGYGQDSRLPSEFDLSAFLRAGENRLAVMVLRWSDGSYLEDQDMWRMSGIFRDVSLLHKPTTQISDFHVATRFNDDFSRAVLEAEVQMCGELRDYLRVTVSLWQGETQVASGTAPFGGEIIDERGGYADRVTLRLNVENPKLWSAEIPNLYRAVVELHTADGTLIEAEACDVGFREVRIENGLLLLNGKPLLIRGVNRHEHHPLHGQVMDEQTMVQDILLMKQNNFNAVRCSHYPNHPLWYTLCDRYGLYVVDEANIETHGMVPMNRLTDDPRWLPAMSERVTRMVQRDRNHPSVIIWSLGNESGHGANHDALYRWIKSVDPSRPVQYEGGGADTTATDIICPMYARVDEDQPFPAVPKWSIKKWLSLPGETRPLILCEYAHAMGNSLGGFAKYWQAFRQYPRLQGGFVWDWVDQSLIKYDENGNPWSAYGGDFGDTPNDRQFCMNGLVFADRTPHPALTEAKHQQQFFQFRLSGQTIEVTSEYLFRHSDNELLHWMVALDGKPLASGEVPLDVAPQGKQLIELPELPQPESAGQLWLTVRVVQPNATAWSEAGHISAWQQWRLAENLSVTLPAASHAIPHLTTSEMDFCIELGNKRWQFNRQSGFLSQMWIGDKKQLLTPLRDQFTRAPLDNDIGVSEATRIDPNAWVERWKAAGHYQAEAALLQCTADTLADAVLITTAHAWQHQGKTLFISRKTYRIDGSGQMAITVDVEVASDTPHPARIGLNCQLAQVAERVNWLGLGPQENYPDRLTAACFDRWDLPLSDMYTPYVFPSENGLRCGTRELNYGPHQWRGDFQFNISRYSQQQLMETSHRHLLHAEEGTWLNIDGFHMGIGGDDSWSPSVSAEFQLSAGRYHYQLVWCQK

[16] = molecular target: Type-1 angiotensin II receptor (Homo sapiens, UniProt P30556); test: antagonism of angiotensin II type 1 receptor – cell-based, uHTS hits, selectivity assay for APJ receptor antagonist project, dose response (AID 463214); format: functional;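 note: antagonist potency against angiotensin II stimulated AT1 response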
Jurkat [17] = test: blockers of NF-kB activation in T cells – Jurkat, luciferase reporter, luminescence, B- and T-cell, dose response (AID 489004); format: functional, cell-based; details: Homo sapiens;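 note: NF-kB luciferase reporter Jurkat cells stimulated with PMA plus ionomycin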
[18] = HEK-293T viability loss, compound-treated – cell-based, uHTS hits, cytotoxicity control for B/T-cell NF-kB inhibitor project, dose response (AID 489019); format: functional;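 note: IC50 reflects cytotoxicity as loss of cell viability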
INS1 = test: INS-1E survival protection against cytokine death – cell-based, luminescence, retest, dose response (AID 449756); format: functional; details: Rattus norvegicus;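 note: cell death triggered by IL-1 beta plus TNF-alpha plus IFN-gamma mixture; protective hits raise ATP signal compared with cytokine alone wells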
[19] = molecular target: Voltage-dependent T-type calcium channel subunit alpha-1H (Homo sapiens, UniProt O95180); test: inhibition of CACNA1H calcium flux – cell-based, SynthLib3 library, HEK293 Cav3.2, fluorescence (AID 493041); format: functional
Voltage-dependent T-type calcium channel subunit alpha-1H, sequence (O95180 whole entry): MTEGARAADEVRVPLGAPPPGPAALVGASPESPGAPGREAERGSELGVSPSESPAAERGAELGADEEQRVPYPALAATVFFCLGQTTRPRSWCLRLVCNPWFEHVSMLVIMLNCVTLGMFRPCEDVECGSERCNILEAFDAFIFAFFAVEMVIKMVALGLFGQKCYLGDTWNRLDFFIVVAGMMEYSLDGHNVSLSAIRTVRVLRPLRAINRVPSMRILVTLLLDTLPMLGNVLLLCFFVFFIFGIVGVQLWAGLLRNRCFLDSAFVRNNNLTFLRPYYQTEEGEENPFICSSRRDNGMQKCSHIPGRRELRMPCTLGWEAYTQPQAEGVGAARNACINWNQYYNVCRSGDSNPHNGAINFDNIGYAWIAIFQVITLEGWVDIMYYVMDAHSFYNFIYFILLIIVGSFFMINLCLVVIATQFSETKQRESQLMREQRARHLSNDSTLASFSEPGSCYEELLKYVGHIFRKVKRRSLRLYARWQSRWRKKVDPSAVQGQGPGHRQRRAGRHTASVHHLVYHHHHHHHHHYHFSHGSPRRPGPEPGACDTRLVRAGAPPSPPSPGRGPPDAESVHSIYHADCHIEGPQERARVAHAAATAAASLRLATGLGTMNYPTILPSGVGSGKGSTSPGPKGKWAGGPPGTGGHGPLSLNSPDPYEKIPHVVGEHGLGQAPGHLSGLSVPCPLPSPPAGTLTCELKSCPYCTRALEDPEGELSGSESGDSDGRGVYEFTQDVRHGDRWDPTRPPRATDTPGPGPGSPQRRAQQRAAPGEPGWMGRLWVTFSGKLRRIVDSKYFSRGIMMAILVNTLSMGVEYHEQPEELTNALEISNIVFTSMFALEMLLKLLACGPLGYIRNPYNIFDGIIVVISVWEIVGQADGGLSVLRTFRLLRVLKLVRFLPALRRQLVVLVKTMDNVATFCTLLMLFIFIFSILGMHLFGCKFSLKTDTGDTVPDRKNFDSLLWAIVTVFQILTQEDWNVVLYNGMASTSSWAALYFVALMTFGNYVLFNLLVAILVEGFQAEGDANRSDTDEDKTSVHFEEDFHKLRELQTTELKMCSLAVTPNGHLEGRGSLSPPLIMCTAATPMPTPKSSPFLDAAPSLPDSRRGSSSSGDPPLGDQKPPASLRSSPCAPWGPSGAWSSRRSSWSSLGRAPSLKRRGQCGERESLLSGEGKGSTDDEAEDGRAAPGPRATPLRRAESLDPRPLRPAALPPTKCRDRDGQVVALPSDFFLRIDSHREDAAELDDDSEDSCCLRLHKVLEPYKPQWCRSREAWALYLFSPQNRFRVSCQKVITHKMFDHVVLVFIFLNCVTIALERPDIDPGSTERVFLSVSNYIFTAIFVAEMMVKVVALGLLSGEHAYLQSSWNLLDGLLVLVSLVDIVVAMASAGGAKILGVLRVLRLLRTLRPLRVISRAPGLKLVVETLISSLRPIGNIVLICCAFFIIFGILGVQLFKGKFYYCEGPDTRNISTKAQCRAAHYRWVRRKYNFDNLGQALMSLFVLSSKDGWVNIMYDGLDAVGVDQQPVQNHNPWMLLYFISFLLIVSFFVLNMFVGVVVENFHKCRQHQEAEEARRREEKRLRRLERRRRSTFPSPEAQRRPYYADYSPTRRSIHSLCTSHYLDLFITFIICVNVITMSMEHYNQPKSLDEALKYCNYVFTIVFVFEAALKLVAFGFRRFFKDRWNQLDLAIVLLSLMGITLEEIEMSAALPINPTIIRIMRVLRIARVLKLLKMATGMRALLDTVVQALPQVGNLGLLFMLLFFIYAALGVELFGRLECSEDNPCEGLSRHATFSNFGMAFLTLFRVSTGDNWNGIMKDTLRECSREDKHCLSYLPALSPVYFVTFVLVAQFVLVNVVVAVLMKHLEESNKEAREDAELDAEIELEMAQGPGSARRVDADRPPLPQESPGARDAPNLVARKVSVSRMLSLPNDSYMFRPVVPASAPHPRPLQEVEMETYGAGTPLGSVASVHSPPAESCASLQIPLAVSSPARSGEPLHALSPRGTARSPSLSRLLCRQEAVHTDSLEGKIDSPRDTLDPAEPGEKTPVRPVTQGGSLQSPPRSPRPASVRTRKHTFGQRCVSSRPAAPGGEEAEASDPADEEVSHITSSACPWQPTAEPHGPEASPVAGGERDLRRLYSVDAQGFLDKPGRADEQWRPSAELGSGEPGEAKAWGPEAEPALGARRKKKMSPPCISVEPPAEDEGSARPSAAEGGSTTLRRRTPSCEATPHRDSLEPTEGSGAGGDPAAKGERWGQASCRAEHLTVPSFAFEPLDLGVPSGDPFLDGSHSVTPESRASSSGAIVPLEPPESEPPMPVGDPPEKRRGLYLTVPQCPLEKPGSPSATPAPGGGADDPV

[20] = molecular target: Potassium voltage-gated channel subfamily KQT member 2 (Rattus norvegicus, UniProt O88943); test: rat KCNQ2 current potentiators – automated patch clamp, KCNQ2-CHO cells, SAR follow-up (AID 493113); format: functional
Jurkat [21] = test: SAR Analysis of small molecule inhibitors of […] specific antigen receptor-induced NF-kB activation in a Jurkat cell line using a luminescence assay - Set 3. [Related pubchem assays (depositor defined):AID435022, AID435025, AID465]; format: functional, cell-based; details: Homo sapiens
HEK293 [22] = test: SAR Analysis of small molecule inhibitors of B-cell specific antigen receptor-induced NF-kB activation in a HEK-293T cell line using a luminescence assay - Set 2. [Related pubchem assays (depositor defined):AID435022, AID435025, AID489021]; format: functional, cell-based; details: Homo sapiens
HEK293 [23] = test: HEK293T cell viability loss, resazurin readout – resazurin fluorescence, cytotoxicity control for NF-kB activator project, SAR follow-up (AID 493251); format: functional, cell-based; details: Homo sapiens
[24] = Luminescence Cell-Based Dose Retest to Confirm Inhibitors of Cancer Stem Cells. [Related pubchem assays (depositor defined):AID2717, AID2721]; format: functional; details: Homo sapiens
[25] = viability loss of HMLE_sh_eGFP cells – cell-based, luminescence, counter-screen for HMLE_sh_ECad selective toxicity project, dose response (AID 463074); format: functional, Homo sapiens;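 note: HMLE human mammary epithelial cells expressing control shRNA against eGFP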
Cytochrome P450 2D6 = Cytochrome P450 2D6 (Homo sapiens, UniProt P10635);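 note: CYP2D6 member of a cytochrome P450 panel assay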
Cytochrome P450 1A2 = molecular target: T6, Cytochrome P450 1A2 (Homo sapiens, UniProt P05177);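 note: PubChem cytochrome P450 panel assay, CYP1A2 panel member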
T6 sequence (P05177 whole entry): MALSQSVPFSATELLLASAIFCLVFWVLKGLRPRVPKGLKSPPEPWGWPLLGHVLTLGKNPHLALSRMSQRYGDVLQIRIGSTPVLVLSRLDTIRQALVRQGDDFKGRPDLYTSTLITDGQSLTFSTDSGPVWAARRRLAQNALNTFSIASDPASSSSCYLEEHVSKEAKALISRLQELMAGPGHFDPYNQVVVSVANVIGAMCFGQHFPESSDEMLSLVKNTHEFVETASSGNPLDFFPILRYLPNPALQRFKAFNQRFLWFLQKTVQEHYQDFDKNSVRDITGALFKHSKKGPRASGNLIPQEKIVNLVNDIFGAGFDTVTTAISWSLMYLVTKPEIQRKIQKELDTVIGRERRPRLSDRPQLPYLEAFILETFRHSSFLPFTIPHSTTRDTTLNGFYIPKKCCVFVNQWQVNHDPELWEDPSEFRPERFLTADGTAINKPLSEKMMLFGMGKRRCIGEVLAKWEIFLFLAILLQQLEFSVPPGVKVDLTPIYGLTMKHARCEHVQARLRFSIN

[26] = molecular target: Voltage-gated inwardly rectifying potassium channel KCNH2 (Homo sapiens, UniProt Q12809); details: Potency;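 note: confirmatory quantitative high-throughput screen measuring inhibition of hERG channel activity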

T1 sequence (P25098 whole entry): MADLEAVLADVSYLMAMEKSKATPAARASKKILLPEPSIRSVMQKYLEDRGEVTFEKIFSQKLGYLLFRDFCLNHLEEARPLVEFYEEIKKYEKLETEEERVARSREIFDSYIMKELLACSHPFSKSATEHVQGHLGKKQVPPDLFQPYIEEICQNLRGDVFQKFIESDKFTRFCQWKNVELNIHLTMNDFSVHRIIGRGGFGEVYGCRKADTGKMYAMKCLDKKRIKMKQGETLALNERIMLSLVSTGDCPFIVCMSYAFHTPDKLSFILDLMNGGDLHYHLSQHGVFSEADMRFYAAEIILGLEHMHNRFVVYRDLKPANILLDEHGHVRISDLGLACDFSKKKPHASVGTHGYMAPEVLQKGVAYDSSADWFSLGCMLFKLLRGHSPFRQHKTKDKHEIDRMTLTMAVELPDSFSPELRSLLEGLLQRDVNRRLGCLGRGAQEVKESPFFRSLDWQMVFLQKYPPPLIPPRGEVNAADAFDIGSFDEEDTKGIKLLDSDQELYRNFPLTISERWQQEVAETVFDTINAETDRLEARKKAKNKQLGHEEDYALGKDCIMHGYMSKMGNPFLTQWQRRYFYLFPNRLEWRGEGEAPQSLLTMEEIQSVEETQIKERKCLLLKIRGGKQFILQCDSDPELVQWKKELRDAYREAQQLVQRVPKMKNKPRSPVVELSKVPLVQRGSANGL

O=C(CCS(=O)(=O)c1ccc(Br)s1)Nc1ccccc1Br
EC50 [1]: 20.9 µM (active)

CCc1ccccc1NC(=O)CCS(=O)(=O)c1ccc(OC)cc1
EC50 [2]: > 195 µM (not active) | IC50 [3]: 16.8 µM (not active) | IC50 [4]: 13.9 µM (not active) | EC50 [5]: 17.8 µM (inactive) | IC50 [6]: 21.1 µM (active)

Cc1ccc(S(C)(=O)=O)c(C)c1NC(=O)c1ccc(-c2cc(Cl)ccc2Cl)o1
IC50 [7]: > 25 µM (inactive) | IC50 [8]: 15.8 µM (inactive) | IC50 [9]: > 25 µM (inactive) | IC50 [10]: 13.8 µM (inactive)

COc1ccc(S(=O)(=O)N2CCCCCC2)cc1C(=O)OCc1c(C)noc1C
IC50 [11]: > 79.4 µM (inactive) | IC50 [12]: > 79.4 µM (inactive) | IC50 [13]: > 79.4 µM (inactive)

COc1ccc(C)c2sc(N(CCN(C)C)C(=O)/C=C/c3cccs3)nc12
CC50 [14]: 12.7 µM (active) | AC50 (A-375): 43.2 µM (active) | IC50 [15]: 35.2 µM (inactive)

Cc1ccc(C(=O)COC(=O)CCC(=O)Nc2ccccc2Cl)cc1[N+](=O)[O-]
EC50 (Beta-galactosidase): > 40 µM (inactive) | IC50 [16]: 22.9 µM (not active)

COC1=CC(=O)[C@]2(C=C1OC)OC[C@@H]1Oc3c(ccc4c3C=CC(C)(C)O4)C(=O)[C@@H]12
IC50 (Jurkat [17]): 28.7 µM (inactive) | IC50 [18]: 23 µM (inactive) | AC50 (INS1): 0.671 µM (active)

CCC(C)CN1C[C@@H]2C(CNC(=O)c3cc(Cl)cc(Cl)c3)[C@@H]2C1 (stereo partly specified)
EC50 [19]: 4 µM (active)

O=C(Nc1ccc(F)cc1F)C1CC2CCC1C2 (stereo unspecified)
EC50 [20]: 10 µM (active)

CCOc1ccc(-c2nc(CSCC(=O)NC3CCCC(C)C3C)c(C)o2)cc1 (stereo unspecified)
IC50 (Jurkat [21]): 39.3 µM (inactive) | IC50 (HEK293 [22]): 8.81 µM (active) | IC50 (HEK293 [23]): 38.9 µM (inactive)

C/C(=N\Nc1cccc(Cl)c1)C1(C)N(O)C(C)(C)C(c2ccco2)=[N+]1[O-] (stereo unspecified)
AC50 [24]: 1.06 µM (active) | AC50 [25]: 1.5 µM (inconclusive)

Nc1nnc(-c2cccc(Cl)c2Cl)c(N)n1 [LAMOTRIGINE]
AC50 (Cytochrome P450 2D6): 6.31 µM (active) | AC50 (Cytochrome P450 1A2): inactive

CC(=O)CC(C)C [METHYL ISOBUTYL KETONE]
AC50 [26]: 15.8 µM (inconclusive)
